Source: patent publication US12616753B2, “HSP70 inhibitors and methods of using same” (THE WISTAR INSTITUTE, priority 2020, dated 2026)

What was measured:
full length human HSP70 = biological target: T1, full length human HSP70 (Homo sapiens, UniProt P0DMV8); test: HSP70 mediated ATPase assay (Transcreener ADP-FI); assay type: biochemical
T1 construct: Five μL of 30 nM full length human HSP70 in assay buffer
Protocol: (§1) FIGS. 1A-1D show ATPase inhibition and direct binding of a novel HSP70 inhibitor. FIG. 1A: Compounds AP-3-97 and AP-4-139B are direct inhibitors of HSP70. HSP70 mediated ATPase activity was assessed using the TRANSCREENER® ADP-FI assay. Five microliters of 30 nM purified human HSP70 in assay buffer was added to test compounds for 30 minutes, followed by addition of excess ATP. After 15 minutes, reactions were stopped and fluorescence was assessed on a plate reader. Data are normalized to percent inhibition, where 100% is the value in the absence of HSP70, and 0% is the value in the presence of HSP70. Compounds shown include PET-16 (positive control) and the novel HSP70 inhibitors AP-3-97 and AP-4-139B. VY-3-277 was used as a negative control. FIG. 1B: Compound AP-4-139B binds HSP70. Whole cell extracts (WCE) from H1299 cells were incubated with 10 μM Biotin or with a Biotin-labeled variant of AP-4-139B (Biotin-AP-4-139B) for 5 hours. Biotin-AP-4-139B containing complexes were captured using NeutrAvidin resins and separated by SDS-PAGE. The Coomassie-stained protein band of approximately 70 kDa was excised and subjected to tryptic digestion and liquid chromatography-tandem mass spectrometry, and identified to be HSP70. FIG. 1C: H1299 cells were pre-treated with 10 μM of VY-3-277, PET-16, or AP-4-139B for 1 hour prior to the addition of 10 μM Biotin-AP-4-139B for 5 hours. Biotin-AP-4-139B containing complexes were captured by NeutrAvidin resins and immunoblotted using the indicated antibodies following SDS-PAGE. Whole cell extracts (WCE) were examined for the expression of HSP70 (input) and GRP75 (input) by Western blot analysis. FIG. 1D: Compound AP-4-139B directly binds purified human HSP70. […] Data were analyzed using the evaluation software from Biacore and the resulting sensograms were exported and re-plotted in GraphPad Prism.
HSP70 mediated ATPase activity was measured using the Transcreener® ADP-FI assay (BellBrook Labs). […] After 30 minutes, fluorescence at 560/620 nm was measured using the Envision plate reader. […]

HSP70 = biological target: T2, HSP70 (Homo sapiens, UniProt P0DMV8); test: HSP70 competition assay in H1299 cells; assay type: binding; details: 10 μM, one-hour pre-incubation
T2 construct: BAP-4-139B successfully precipitated a single protein from H1299 cells; endogenous in cells; host or cells: H1299 human lung carcinoma cells
Protocol: as §1, with “HSP70.” for “HSP70. FIG. 1C: H1299 cells were pre-treated with 10 μM of VY-3-277, PET-16, or AP-4-139B for 1 hour prior to the addition of 10 μM Biotin-AP-4-139B for 5 hours. Biotin-AP-4-139B containing complexes were captured by NeutrAvidin resins and immunoblotted using the indicated antibodies following SDS-PAGE. Whole cell extracts (WCE) were examined for the expression of HSP70 (input) and GRP75 (input) by Western blot analysis. FIG. 1D: Compound AP-4-139B directly binds purified human HSP70.”, “Prism. […]” for “Prism.”

T2 sequence (P0DMV8 whole entry): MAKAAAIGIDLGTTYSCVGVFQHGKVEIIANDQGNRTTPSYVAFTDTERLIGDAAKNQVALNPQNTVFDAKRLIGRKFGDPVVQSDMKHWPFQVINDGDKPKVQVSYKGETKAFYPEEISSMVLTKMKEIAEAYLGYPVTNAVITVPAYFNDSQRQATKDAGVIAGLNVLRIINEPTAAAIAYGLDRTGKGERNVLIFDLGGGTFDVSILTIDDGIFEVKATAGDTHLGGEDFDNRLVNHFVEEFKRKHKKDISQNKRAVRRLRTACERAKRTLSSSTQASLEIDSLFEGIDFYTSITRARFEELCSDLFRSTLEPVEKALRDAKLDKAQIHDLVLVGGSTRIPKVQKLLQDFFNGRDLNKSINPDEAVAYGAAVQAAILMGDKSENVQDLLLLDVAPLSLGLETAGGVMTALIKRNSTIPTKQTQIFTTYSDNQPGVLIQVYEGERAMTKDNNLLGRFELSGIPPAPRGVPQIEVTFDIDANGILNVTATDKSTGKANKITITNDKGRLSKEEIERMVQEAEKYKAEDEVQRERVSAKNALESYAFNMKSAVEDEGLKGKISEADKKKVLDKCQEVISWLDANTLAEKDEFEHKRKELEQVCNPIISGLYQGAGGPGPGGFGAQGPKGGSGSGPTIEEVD
T1 sequence (P0DMV8 whole entry): as above

| Compound | inhibition of HSP70 ATPase activity (in words) (full length human HSP70) | prevention of BAP-4-139B pull down of HSP70 (HSP70) | IC50 (full length human HSP70) [µM] |
| --- | --- | --- | --- |
| c1ccc(-c2cn3nc(CCCCCC[P+](c4ccccc4)(c4ccccc4)c4ccccc4)sc3n2)cc1 [AP-4-139B, Triphenyl(6-(6-phenylimidazo[2,1-b][1,3,4]thiadiazol-2-yl)hexyl)phosphonium bromide] | markedly superior potency | prevented the ability of BAP-4-139B to pull down HSP70 | – |
| C(#C[P+](c1ccccc1)(c1ccccc1)c1ccccc1)c1ccccc1 [PET-16, Triphenyl(phenylethynyl)phosphonium bromide, reference compound] | – | prevented the ability of BAP-4-139B to pull down HSP70 | ~3 |
